# Tests used:
# NTCP = biological target: T1, NTCP (Homo sapiens, UniProt Q14973); assay: NTCP uptake of tritium labeled TCA in CHO cells; assay type: cell-based; conditions: at 250 μmol/L
# T1 construct: host or cells: CHO cells
# T1 sequence (Q14973 1-349): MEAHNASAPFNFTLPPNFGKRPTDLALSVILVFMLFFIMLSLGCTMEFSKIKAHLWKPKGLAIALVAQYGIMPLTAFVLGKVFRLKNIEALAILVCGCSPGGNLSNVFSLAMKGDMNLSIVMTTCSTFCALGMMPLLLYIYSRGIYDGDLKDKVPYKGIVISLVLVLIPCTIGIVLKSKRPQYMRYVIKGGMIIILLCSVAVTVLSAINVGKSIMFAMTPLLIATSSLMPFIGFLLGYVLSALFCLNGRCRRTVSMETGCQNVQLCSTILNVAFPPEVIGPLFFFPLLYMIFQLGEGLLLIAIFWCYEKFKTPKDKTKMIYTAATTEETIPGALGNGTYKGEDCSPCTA
# Excerpt: […]
# Sprague-Dawley rats [1] = assay: Preliminary 7-Day Oral Toxicity Study in Rats; assay type: in vivo; conditions: for gross pathology: animals with impacted feces / microscopic changes in liver (and kidneys): 7 days; for gross pathology: animals with impacted feces: 10 M per group; for microscopic changes in liver (and kidneys): high-dose animals (300 mg/kg); for ALT: once daily for 7 days, 10 to 300 mg/kg/day PO
# Sprague-Dawley rats [2] = assay: 28-day Oral Gavage Toxicity and Toxicokinetic Study in Rats; assay type: in vivo
# Method: In the longer-term studies Sprague-Dawley rats were administered PF-04895162 once daily for 28 days or 6 months at doses up to 100 mg/kg/day. […] The drug was well absorbed into the systemic circulation of male and female rats following oral administration for 6 months.
smiles,measurement,setting,value
"O=C(Cc1ccc(F)cc1)Nn1c(C2CC2)nc2cc(F)ccc2c1=O [PF‐04895162, N‐(2‐cyclopropyl‐7‐fluoro‐4‐oxoquinazolin‐3(4H)‐yl)‐2‐(4‐fluorophenyl)ethanamide]",inhibition at 250 µM,NTCP,30%
same,gross pathology: animals with impacted feces,Sprague-Dawley rats [1]; 100 mg/kg,1
same,gross pathology: animals with impacted feces,Sprague-Dawley rats [1]; 300 mg/kg,6
same,body temperature,"Sprague-Dawley rats [1]; 30, 100, and 300 mg/kg on Day 1 and 300 mg/kg on Day 7",decreased
same,Body weight gain,"Sprague-Dawley rats [1]; Days 3, 5, and 7 at 30, 100, and 300 mg/kg",suppressed
same,clinical signs,"Sprague-Dawley rats [1]; early in the study, primarily at 300 mg/kg","tremor, splayed stance, altered gait, piloerection, and mild tremors"
same,microscopic changes in liver (and kidneys),Sprague-Dawley rats [1],no microscopic changes in the liver or kidneys
same,microscopic changes in liver (and kidneys),Sprague-Dawley rats [1]; listed as PF-04895162,no microscopic changes in the liver
same,ALT,Sprague-Dawley rats [1],dose-dependent increases in ALT
same,ALT,Sprague-Dawley rats [1]; listed as ICA-105665,increased in a dose-dependent manner
same,"few feces, incidence","Sprague-Dawley rats [2]; 100 mg/kg, females",6/15
same,"head tremors, incidence","Sprague-Dawley rats [2]; 100 mg/kg, females",2/15
same,"rough haircoat, incidence","Sprague-Dawley rats [2]; 100 mg/kg, females",4/15
same,"clear oral discharge, incidence","Sprague-Dawley rats [2]; 100 mg/kg, males",2/15
same,microscopic findings in the liver,Sprague-Dawley rats [2]; 100 mg/kg/day for 28 days,No treatment-related microscopic findings
same,body temperature,"Sprague-Dawley rats [2]; 3, 30, 100 mg/kg, 28 days",no apparent treatment-related effect
same,clinical pathology data,"Sprague-Dawley rats [2]; 3, 30, 100 mg/kg, 28 days",no apparent treatment-related effects
same,gross pathology and mean organ weights,"Sprague-Dawley rats [2]; 3, 30, 100 mg/kg, 28 days",no obvious treatment-related gross pathology findings or mean organ weight changes
same,mortality,"Sprague-Dawley rats [2]; 3, 30, 100 mg/kg, 28 days",no mortality
same,liver weights,"Sprague-Dawley rats [2]; 28 days, up to 100 mg/kg/day",Increased liver weights
same,Day 28 mean body weight,"Sprague-Dawley rats [2]; females, 3 mg/kg",101 % of control
same,Weeks 1-4 food consumption,"Sprague-Dawley rats [2]; females, 3 mg/kg",101 % of control
same,Mean liver weight,"Sprague-Dawley rats [2]; females, 3 mg/kg (cell cut, unit not shown)",111
same,Day 28 mean body weight,"Sprague-Dawley rats [2]; females, 30 mg/kg",97 % of control
same,Weeks 1-4 food consumption,"Sprague-Dawley rats [2]; females, 30 mg/kg",97 % of control
same,Mean liver weight,"Sprague-Dawley rats [2]; females, 30 mg/kg (cell cut, unit not shown)",106
same,Day 28 mean body weight,"Sprague-Dawley rats [2]; females, 100 mg/kg",95 % of control
same,Weeks 1-4 food consumption,"Sprague-Dawley rats [2]; females, 100 mg/kg",88 % of control
same,Day 28 mean body weight,"Sprague-Dawley rats [2]; males, 3 mg/kg",100 % of the mean control weight
same,Weeks 1-4 food consumption,"Sprague-Dawley rats [2]; males, 3 mg/kg",99 % of the mean control food consumption
same,Day 28 mean body weight,"Sprague-Dawley rats [2]; males, 30 mg/kg",92 % of the mean control weight
same,Weeks 1-4 food consumption,"Sprague-Dawley rats [2]; males, 30 mg/kg",95 % of the mean control food consumption
same,Day 28 mean body weight,"Sprague-Dawley rats [2]; males, 100 mg/kg",90 % of the mean control weight
same,Weeks 1-4 food consumption,"Sprague-Dawley rats [2]; males, 100 mg/kg",87 % of the mean control food consumption
same,transaminases,"Sprague-Dawley rats [2]; once daily for 28 days, up to 100 mg/kg/day",No transaminase elevations

# Reference: paper PMC6370995, “Phase I study of PF‐04895162, a Kv7 channel opener, reveals unexpected hepatotoxicity in healthy subjects, but not rats or monkeys: clinical evidence of disrupted bile acid homeostasis” (Pharmacology Research & Perspectives, 2019)
